Source: patent publication US9139589B2, “Heteroaryls and uses thereof” (Millennium Pharmaceuticals, Inc., priority 2009, dated 2015)
pIC50: −log10 of the molar value.

Biological target: T1, PI3Kalpha (Homo sapiens, UniProt P42336)
T1 construct: His (N); host or cells: SF9 insect cells (baculovirus co-infection)
Experiment: PI3K enzyme HTRF assay (PI3Kalpha)
Format: biochemical
Excerpt: Active phosphatidylinositol 3′ kinase (PI3K) enzyme is purified at Millennium Pharmaceuticals from SF9 insect cells (Invitrogen) co-infected with baculovirus containing amino-terminal His-tagged p110α and p85α expression constructs.
The PI3K enzyme HTRF® assay makes use of an energy transfer complex comprised of biotin-PI(3,4,5)P3, Europhium labeled anti-GST monoclonal antibody, a GST-tagged GRP1 pleckstrin homology (PH) domain, and Streptavidin-APC (allophycocyanin). Excitation of the Europium in the complex results in a stable time-resolved fluorescence resonance energy transfer (FRET) signal. Phosphatidylinositol 3,4,5 triphosphate (PI(3,4,5)P3, the product of PI3K, disrupts the energy transfer complex by competing with biotin-PI(3,4,5)P3 for binding to the GRP1 PH domain, resulting in a decreased fluorescent signal. Inhibitors of PI3K in the reaction prevent a decrease in the fluorescent signal.
PI3K enzyme (325 pM) is incubated with di-C8 PI(4,5)P2 substrate (3.5 μM, CellSignals, Inc.) in assay buffer (50 mM HEPES pH 7.0, 5 mM DTT, 150 mM NaCl, 10 mM β-glycerophosphate, 5 mM MgCl2, 0.25 mM sodium cholate, 0.001% CHAPS) containing 25 μM ATP and 0.5 μL of test compound (in 100% DMSO) at multiple concentrations in a final volume of 20.5 μL in 384 well plates for 30 min at 22-23° C. […] Fluorescent signal for each well is then measured on an LJL_Analyst (Molecular Devices). […]

T1 sequence (P42336 whole entry): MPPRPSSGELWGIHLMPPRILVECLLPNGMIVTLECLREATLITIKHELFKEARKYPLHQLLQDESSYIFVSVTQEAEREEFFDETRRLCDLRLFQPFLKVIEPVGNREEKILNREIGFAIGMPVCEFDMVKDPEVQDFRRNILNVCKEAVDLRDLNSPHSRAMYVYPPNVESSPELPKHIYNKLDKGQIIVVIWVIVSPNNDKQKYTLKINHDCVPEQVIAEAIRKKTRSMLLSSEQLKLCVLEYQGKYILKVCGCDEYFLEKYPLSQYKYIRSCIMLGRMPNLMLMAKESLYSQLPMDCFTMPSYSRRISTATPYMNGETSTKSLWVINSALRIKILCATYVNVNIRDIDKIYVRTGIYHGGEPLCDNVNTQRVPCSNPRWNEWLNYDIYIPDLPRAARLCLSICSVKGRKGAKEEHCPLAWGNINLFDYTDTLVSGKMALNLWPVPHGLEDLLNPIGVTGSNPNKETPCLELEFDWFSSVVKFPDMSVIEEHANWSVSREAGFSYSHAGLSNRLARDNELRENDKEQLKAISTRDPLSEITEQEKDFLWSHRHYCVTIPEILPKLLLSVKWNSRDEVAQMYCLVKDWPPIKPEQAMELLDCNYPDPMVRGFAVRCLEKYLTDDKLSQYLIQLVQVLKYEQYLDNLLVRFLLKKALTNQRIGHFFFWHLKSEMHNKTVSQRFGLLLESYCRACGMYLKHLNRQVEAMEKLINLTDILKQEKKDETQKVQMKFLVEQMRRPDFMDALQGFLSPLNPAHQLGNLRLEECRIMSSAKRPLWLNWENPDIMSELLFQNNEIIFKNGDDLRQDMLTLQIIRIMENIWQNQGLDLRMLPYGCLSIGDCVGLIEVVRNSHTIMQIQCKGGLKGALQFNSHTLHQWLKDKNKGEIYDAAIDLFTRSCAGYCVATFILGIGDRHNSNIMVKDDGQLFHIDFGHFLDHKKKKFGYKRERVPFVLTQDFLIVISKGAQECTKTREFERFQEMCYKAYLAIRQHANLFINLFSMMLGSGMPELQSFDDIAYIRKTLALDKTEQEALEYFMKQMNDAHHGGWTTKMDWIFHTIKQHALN
T1 sequence (P27986 whole entry partner): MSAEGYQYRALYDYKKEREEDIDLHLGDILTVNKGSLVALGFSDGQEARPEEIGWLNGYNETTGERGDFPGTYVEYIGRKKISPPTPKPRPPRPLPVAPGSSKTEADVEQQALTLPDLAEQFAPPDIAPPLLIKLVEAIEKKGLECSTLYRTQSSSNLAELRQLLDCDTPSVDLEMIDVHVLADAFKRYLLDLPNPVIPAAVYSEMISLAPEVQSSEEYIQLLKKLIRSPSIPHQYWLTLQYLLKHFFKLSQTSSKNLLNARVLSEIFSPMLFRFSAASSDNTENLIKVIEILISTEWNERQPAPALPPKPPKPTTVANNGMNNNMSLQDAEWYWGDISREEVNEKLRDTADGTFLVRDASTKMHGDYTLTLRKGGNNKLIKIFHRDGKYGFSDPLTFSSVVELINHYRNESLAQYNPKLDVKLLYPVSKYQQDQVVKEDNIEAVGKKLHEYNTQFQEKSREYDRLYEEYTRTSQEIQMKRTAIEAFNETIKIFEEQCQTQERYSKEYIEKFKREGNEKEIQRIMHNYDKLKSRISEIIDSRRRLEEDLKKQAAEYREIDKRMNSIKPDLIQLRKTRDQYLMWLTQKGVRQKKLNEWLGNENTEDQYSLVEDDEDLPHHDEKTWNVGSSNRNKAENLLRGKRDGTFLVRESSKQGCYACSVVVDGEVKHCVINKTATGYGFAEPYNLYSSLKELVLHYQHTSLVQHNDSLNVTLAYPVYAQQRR

CC(=O)Nc1cc(-c2nc(-c3ccccc3Cl)c(NC(C)=O)s2)ccn1 [Example C-1, N-{4-[5-(acetylamino)-4-(2-chlorophenyl)-1,3-thiazol-2-yl]pyridin-2-yl}acetamide]
pIC50: < 6.00
